Source: patent publication US9029095B2, “Method and kits for determining platelet susceptibility to activation in a patient” (Institut National de la Sante et de la Recherche Medicale …, priority 2010, dated 2015)
Several values for one entry are separate records, joined by “and”; a condition that tells them apart may be missing. Identical values can stand only once. Entries after “also recorded” stand apart in the source; their conditions may differ. Like-named read-outs stand apart in the source and are kept apart here.

Experiments:
[1] = tested on: GPVI dimerization on platelets; assay: Effect of agonists and inhibitors on 9E18 binding to platelets (GPVI dimerization), flow cytometry; format: cell-based, human; conditions: for effect on 9E18 binding / GPVI dimerization of activated platelets / effect on 9E18 binding to resting as well as activated platelets: ADP-; for effect on 9E18 binding / GPVI dimerization of activated platelets: TRAP- or PMA-activated platelets; for effect on 9E18 binding to resting as well as activated platelets: TRAP- or PMA-activated washed platelets
[2] = tested on: P-selectin exposure on platelets; assay: P-selectin exposure on platelets, flow cytometry; format: cell-based, human; conditions: washed platelets
[3] = tested on: FcRγ; assay: FcRγ phosphorylation in activated platelets; format: cell-based, human; conditions: conditions leading to GPVI dimerization
[4] = tested on: platelet adhesion to immobilized collagen; assay: GPVI-dependent platelet adhesion to immobilized collagen (static); format: cell-based, human; conditions: PMA-treated platelets
[5] = tested on: ADP-induced GPVI dimerization; assay: ADP-induced 9E18 binding to platelets (PRP) of patients treated with P2Y12 antagonists, ex vivo; format: in vivo, human
Excerpt: FIG. 3: 9E18 as a marker of platelet activation and reactivity: Blood samples were obtained from (A) a cohort of patients with coronary artery disease admitted for percutaneous coronary intervention (n=45) and (B) healthy volunteers (n=40). For each subject, GPVI dimerization, represented by the extent of 9E18 positive platelets, is plotted against P-selectin exposure. Blood samples were obtained from (C) patients treated by prasugel and (D) healthy volunteers. For each subject the binding of FITC-coupled 9E18 to platelets was measured by flow cytometry after incubation of the PRP with buffer or ADP (10 μM) for 20 min.
FIG. 4: 9E18 as a marker of platelet activation and reactivity A: 9E18 binding to platelets and P-selectin exposure were measured in blood samples (PRP) obtained from a cohort of patients with CAD admitted for percutaneous coronary intervention (n=45). B: ADP-induced binding of 9E18 to platelets was measured on blood samples (PRP) from normal subjects and patients with CAD treated by clopidogrel (n=26). Results are expressed as the ratio between the levels of 9E18 binding to ADP-stimulated/non-stimulated samples×100.C: ADP-induced binding to platelets of patients treated by clopidogrel was plotted against corresponding data of the VASP phosphorylation assay.
Blood samples were obtained from a cohort of patients with coronary artery disease (CAD) referred to the department of cardiology of Bichat hospital for percutaneous coronary intervention (BIOCORE-2 study, Clinical Trial Registration—URL: http://clinicaltrials.gov/ct2/show/NCT01186666?term=NCT01186666&rank=1). The study complies with the Declaration of Helsinky and was approved by the institutional ethics committee. All of the patients provided written informed consent. Blood was drawn on 0.109M citrate the day after percutaneous coronary intervention (PCI). PRP, a waste of the established protocol, was used for this study. Analysis was performed less than one hour after blood sampling, on PRP using FITC-coupled 9E18, 3J24 or anti-P-selectin. […]

[6] = molecular target: T1, GPVI dimers on shear-activated platelets (Homo sapiens, UniProt Q9HCN6); assay: Shear-induced platelet activation, 9E18 binding; format: cell-based; conditions: washed platelets
T1 construct: Blood was obtained from healthy volunteers; endogenous in cells; host or cells: human platelets (whole blood, PRP, washed platelets or lysates) from healthy volunteers or coronary artery disease patients
T1 sequence (Q9HCN6 21-339): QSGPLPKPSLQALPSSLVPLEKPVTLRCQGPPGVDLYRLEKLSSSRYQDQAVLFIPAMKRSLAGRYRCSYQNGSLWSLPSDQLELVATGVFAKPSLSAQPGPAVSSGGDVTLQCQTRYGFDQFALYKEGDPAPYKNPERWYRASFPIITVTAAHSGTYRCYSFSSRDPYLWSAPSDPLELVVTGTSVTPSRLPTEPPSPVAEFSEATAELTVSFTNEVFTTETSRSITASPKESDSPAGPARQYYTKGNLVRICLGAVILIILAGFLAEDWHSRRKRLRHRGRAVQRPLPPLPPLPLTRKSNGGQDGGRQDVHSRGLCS
T1 sequence (P30273 19-86 partner): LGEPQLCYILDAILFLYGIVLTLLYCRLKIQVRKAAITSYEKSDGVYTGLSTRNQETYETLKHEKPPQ

[7] = molecular target: T2, 9E18 binding to stimulated platelets (Homo sapiens, UniProt Q9HCN6); assay: Inhibition of 9E18 binding to stimulated platelets by soluble GPVI or IV.3; format: cell-based
T2 construct: Blood was obtained from healthy volunteers; endogenous in cells; host or cells: human platelets (whole blood, PRP, washed platelets or lysates) from healthy volunteers or coronary artery disease patients
T2 sequence (Q9HCN6 21-339): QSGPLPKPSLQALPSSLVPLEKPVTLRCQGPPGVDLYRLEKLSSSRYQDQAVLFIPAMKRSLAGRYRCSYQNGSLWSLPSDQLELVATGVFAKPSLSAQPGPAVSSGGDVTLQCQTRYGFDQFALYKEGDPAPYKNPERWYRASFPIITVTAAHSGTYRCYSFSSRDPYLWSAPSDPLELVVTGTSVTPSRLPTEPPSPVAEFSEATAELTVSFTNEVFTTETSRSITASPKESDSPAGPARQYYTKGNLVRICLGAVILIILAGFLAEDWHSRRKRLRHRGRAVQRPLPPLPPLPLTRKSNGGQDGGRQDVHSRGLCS
T2 sequence (P30273 19-86 partner): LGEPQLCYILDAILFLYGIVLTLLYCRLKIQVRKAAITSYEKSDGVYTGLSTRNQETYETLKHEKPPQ
Method: Resting and activated platelets (5×10^7 mL^−1 in whole blood or PRP or buffer) were incubated with FITC-coupled anti-GPVI or P-selectin antibodies for 20 min and, when needed fixed with 1% PFA. Samples were analyzed by flow cytometry using Epics XL.MCL (Coulter) or LSRII (Becton Dickinson Biosciences) apparatus. Platelet glycoprotein quantification was performed using the quantification kit, Platelet GP screen (Byocytex, Marseille, France).

[8] = molecular target: T3, 9E18 binding to immobilized GPVI-Fc (Homo sapiens, UniProt Q9HCN6); assay: Competition: binding of 9E18 to immobilized GPVI-Fc in presence of soluble GPVI
T3 construct: Recombinant soluble GPVI was obtained as the extracellular domain of human GPVI; made in house; host or cells: HEK cells
T3 sequence (Q9HCN6 21-267 limits assumed): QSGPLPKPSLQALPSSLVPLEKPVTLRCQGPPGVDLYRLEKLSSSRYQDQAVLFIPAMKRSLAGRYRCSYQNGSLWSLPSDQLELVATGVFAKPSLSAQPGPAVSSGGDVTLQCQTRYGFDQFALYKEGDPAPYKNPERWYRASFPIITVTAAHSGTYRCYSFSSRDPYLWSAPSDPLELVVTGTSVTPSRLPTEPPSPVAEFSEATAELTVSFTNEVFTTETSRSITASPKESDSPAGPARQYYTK

[9] = molecular target: collagen; assay: Binding of recombinant soluble GPVI to collagen (purified proteins, microtitration wells); set-up: species or system equine; conditions: Example 1

In the case of CC(=O)N[C@@H](C(=O)O)C(C)(C)SN=O (racemic) [SNAP], the “effect on 9E18 binding / GPVI dimerization of activated platelets” value [1] is reported as “same effect; also recorded: inhibited” and the “effect on 9E18 binding to resting as well as activated platelets” value [1] is reported as “inhibited”.

In the case of CSc1nc(N)c2ncn([C@@H]3O[C@H](COP(=O)(O)O)[C@@H](O)[C@H]3O)c2n1 [2MeSAMP], the “effect on 9E18 binding to ADP- or TRAP-stimulated platelets” value [1] is reported as “inhibited; also recorded: prevented” and the “effect on ADP-induced 9E18 binding to platelets” value [1] is reported as “blocked”.

In the case of Nc1ncnc2c1ncn2[C@@H]1O[C@H](COP(=O)(O)OP(=O)(O)O)[C@@H](O)[C@H]1O [ADP, adenosine diphosphate], the “surface exposure of P-selectin induced by agonist” value [2] is reported as “induced surface exposure of P-selectin”, the “effect of agonist on binding of 9E18 to platelets” value [1] is reported as “increased” and the “FcRγ phosphorylation in activated platelets” value [3] is reported as “not phosphorylated”.

In the case of CNC[C@H](O)c1ccc(O)c(O)c1 [Epinephrine], the “factor of increase of 9E18 binding to platelets” value [1] is reported as 1.5.

For CCCCC[C@H](O)/C=C/[C@H]1[C@H](O)CC(=O)[C@@H]1CCCCCCC(=O)O [PGE1, prostaglandin E1], the “effect on 9E18 binding to ADP- or TRAP-stimulated platelets” value ([1]; ADP or TRAP) was “dropped to basal level”, the “effect on 9E18 binding / GPVI dimerization of activated platelets” value [1] was “drastically reduced; also recorded: inhibited” and the “effect on PMA-induced 9E18 binding to platelets” value ([1]; PMA) was “greatly decreased”. The “effect on 9E18 binding in the absence of agonist” value ([1]; preincubation, no agonist) was “lowered” and the “effect on 9E18 binding to resting as well as activated platelets” value [1] was “reduced”.

For CCCCCCCCCCCCCC(=O)O[C@@H]1[C@@H](C)[C@@]2(O)[C@@H](C=C(CO)C[C@]3(O)C(=O)C(C)=C[C@@H]23)[C@@H]2C(C)(C)[C@]12OC(C)=O [PMA], the “effect on GPVI-dependent platelet adhesion to immobilized collagen” value [4] was “increase”, the “effect of agonist on binding of 9E18 to platelets” value [1] was “significantly increased” and the “level of 9E18 binding to PMA-treated platelets” value ([1]; PMA alone) was 31.5±4% and 27.7%. The “FcRγ phosphorylation in activated platelets” value [3] was “not phosphorylated”.

With Cc1ccc(-c2nn(C(C)(C)C)c3ncnc(N)c23)cc1 [PP1] the “level of PMA-induced 9E18 binding in presence of inhibitor” value ([1]; 20 μM inhibitor, PMA-treated platelets) was 28.4%.

With COC(=O)[C@H](c1ccccc1Cl)N1CCc2sccc2C1 [clopidogrel, (+)-(S)-methyl 2-(2-chlorophenyl)-2-(6,7-dihydrothieno[3,2-c]pyridin-5(4H)-yl)acetate] the “ADP-induced 9E18 binding response in treated patients vs normal subjects” value ([5]; 75 mg, PRP) was “highly significant reduction”.

In the case of COc1ccc2c(c1)c(CC(=O)O)c(C)n2C(=O)c1ccc(Cl)cc1 [indomethacine, Indomethacin], the “effect on 9E18 binding to ADP- or TRAP-stimulated platelets” value ([1]; ADP or TRAP) is reported as “no effect”.

With CC(=O)Oc1cc2c(s1)CCN(C(C(=O)C1CC1)c1ccccc1F)C2 (stereo not shown) [prasugrel] the “ADP-induced increase of 9E18 binding to platelets of treated patients” value ([5]; PRP, ADP 10 μM, good responders by VASP test) was “not to platelets of 9 patients treated by prasugrel; also recorded: blocked” and the “9E18 binding and VASP phosphorylation in response to ADP” value ([5]; one treated patient (low response)) was “remained increased”.

In the case of apyrase, the “effect on ADP-induced 9E18 binding to platelets” value ([1]; ADP) is reported as “fully prevented”, the “inhibition of ADP-induced binding of 9E18” value ([1]; ADP) is reported as 85% and the “reduction of TRAP-induced binding of 9E18” value [1] is reported as 75%. For the same molecule, the “reduction of TRAP-induced binding of 9E18” value ([1]; listed as Apyrase) was 50%.

With “vWF: von Willebrand factor added to washed platelets” the “effect of addition on shear-induced platelet aggregation and level of 9E18 binding” value [6] was “parallel increase”.

B1: GPVI-His: extracellular domain of human GPVI fused to a poly-His Tag, monomeric (protein, UniProt Q9HCN6 21-267, looked up)
extracellular domain: QSGPLPKPSLQALPSSLVPLEKPVTLRCQGPPGVDLYRLEKLSSSRYQDQAVLFIPAMKRSLAGRYRCSYQNGSLWSLPSDQLELVATGVFAKPSLSAQPGPAVSSGGDVTLQCQTRYGFDQFALYKEGDPAPYKNPERWYRASFPIITVTAAHSGTYRCYSFSSRDPYLWSAPSDPLELVVTGTSVTPSRLPTEPPSPVAEFSEATAELTVSFTNEVFTTETSRSITASPKESDSPAGPARQYYTK
modifications: extracellular domain poly-His tag
notes: extracellular domain of human GPVI fused to a poly-His Tag, monomeric
With B1 the “inhibition of 9E18 binding to stimulated platelets” value [7] was “not”, the “inhibition of 9E18 binding to stimulated platelets” value ([7]; listed as monomers) was “not by monomers” and the “IC50, inhibition of 9E18 binding to immobilized GPVI-Fc by soluble GPVI” value [8] was 3.7 ± 2.2 µg/mL. For the same molecule, the “inhibition of 9E18 binding to GPVI-Fc” value ([8]; GPVI-His up to 10 μg·mL^−1) was 70%, the IC50 ([8]; molar value in brackets, Example 1, read-out: IC50, inhibition of 9E18 binding to immobilized GPVI-Fc by soluble GPVI) was 74 nM and the Kd ([8]; value in brackets after IC50, Example 2, read-out: Kd from competition of 9E18 binding to GPVI-Fc) was 78 nM. The affinity for collagen [9] was 14.7 ± 3.27 µg/mL.
